Results from publication PMC6063907, “Metal-cation regulation of enzyme dynamics is a key factor influencing the activity of S-adenosyl-L-homocysteine hydrolase from Pseudomonas aeruginosa” (Scientific Reports, 2018).
Like-named read-outs stand apart in the source and are kept apart here.

Columns and labels:
wild type (WT) PaSAHase [1] = target: T1, wild type (WT) PaSAHase (Pseudomonas aeruginosa, UniProt Q9I685); type: biochemical; conditions: WT enzyme; for kcat/KM: 100 mM MeCl, 25 mM HEPES·MeOH pH 7.5, substrate SAH, 293 K, ± SEM
T1 construct: His-tag with TEV site (from vector pMCSG57) (N, cleaved yes); made in house; host or cells: E. coli BL21-CodonPlus(DE3)-RIPL
Procedure: (§1) Assays for PaSAHase activity in the hydrolytic direction were carried out spectrophotometrically and the rate of L-homocysteine (Hcy) formation was measured by monitoring its reaction with 5,5′-dithiobis(2-nitrobenzoic acid) (DTNB)[21]. Assays were performed in 3 mL volume in a buffer containing 100 mM MeCl (where Me^+ corresponds to Li^+, Na^+, K^+, Rb^+, or Cs^+ ion) and 25 mM HEPES·MeOH pH 7.5, or a buffer containing 100 mM Tris·HCl pH 7.5. For the Q65A mutein, the experiments were conducted in a buffer containing 100 mM KCl and 25 mM HEPES·KOH pH 7.5. The buffers were supplemented with six units of adenosine deaminase, 100 μM DTNB, and 0.32 μM of PaSAHase or its mutein. The reaction was initiated by the addition of S-adenosyl-L-homocysteine (SAH) at a final concentration from 2.5 to 200 μM. The conversion of Hcy to Hcy-TNB was carried out at 293 K. The reaction progress was measured for one minute and monitored at 412 nm using a U-3900H spectrophotometer (Hitachi). Initial velocity parameters were estimated from the linear region of the recorded curve.
(§2) For the inhibition study, PaSAHase (0.35 μM) in a buffer containing 100 mM KCl and 25 mM Tris·HCl pH 7.5 was incubated with Zn^2+ at different concentrations, ranging from 0.165 to 20 μM. The reaction was initiated by the addition of SAH at a final concentration of 85 μM. The enzymatic activity was followed in the hydrolytic direction by monitoring homocysteine formation via its reaction with DNTB to determine the IC50 constant. For the sample without the addition of Zn^2+ ions, 100% activity was assigned. All measurements were performed in duplicates. The experimental data were analyzed with the GraFit 7.0 software (Erithacus) to obtain the kinetic parameters of the enzymatic reactions: substrate affinity (KM), activity (Vmax), as well as catalytic rate (kcat) or IC50 value for inhibition. The IC50-to-Ki converter[61] was applied to calculate the inhibition constant (Ki) for Zn^2+ ions using the noncompetitive model of inhibition.

PaSAHase [2] = target: T2, PaSAHase (Pseudomonas aeruginosa, UniProt Q9I685); assay: Inhibition of PaSAHase by Zn^2+ ions (DTNB assay); type: biochemical; conditions: 100 mM KCl; for Ki: calculated from IC50 with IC50-to-Ki converter, noncompetitive model, 25 mM Tris·HCl pH 7.5, SAH 85 μM, enzyme 0.35 μM, read-out: inhibitory constant Ki
T2 construct: His-tag with TEV site (from vector pMCSG57) (N, cleaved yes); made in house; host or cells: E. coli BL21-CodonPlus(DE3)-RIPL
T2 sequence (Q9I685 1-469): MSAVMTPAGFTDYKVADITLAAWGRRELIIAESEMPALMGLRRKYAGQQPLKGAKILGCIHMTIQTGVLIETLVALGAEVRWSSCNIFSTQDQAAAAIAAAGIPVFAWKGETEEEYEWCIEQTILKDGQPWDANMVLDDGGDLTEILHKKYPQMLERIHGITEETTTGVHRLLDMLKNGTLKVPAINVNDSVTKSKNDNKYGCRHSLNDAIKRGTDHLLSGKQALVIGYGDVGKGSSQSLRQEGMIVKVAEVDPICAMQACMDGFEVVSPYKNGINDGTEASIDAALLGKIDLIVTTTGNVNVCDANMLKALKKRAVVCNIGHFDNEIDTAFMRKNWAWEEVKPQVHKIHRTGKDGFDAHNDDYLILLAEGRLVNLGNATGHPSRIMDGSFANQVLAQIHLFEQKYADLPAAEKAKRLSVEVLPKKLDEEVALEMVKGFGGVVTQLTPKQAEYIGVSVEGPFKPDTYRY
Procedure: as §2

PaSAHase [3] = target: T2, PaSAHase; assay: ITC titration of PaSAHase with metal ions (Zn^2+, K^+); type: binding
Procedure: (§3) ITC measurements were performed at 293 K using a MicroCal iTC200 calorimeter (GE Healthcare). For the adenosine binding studies, the wild type protein was dialyzed against a buffer containing 100 mM MeCl and 25 mM HEPES·MeOH pH 7.5, or an alkali-cation-free buffer containing 100 mM Tris·HCl pH 7.5. The experiment for the Q65A mutein was conducted in a buffer containing 100 mM KCl and 25 mM HEPES·KOH pH 7.5. The final protein concentrations were in the range of 100–120 µM. Adenosine was dissolved in the dialysis buffers to the concentrations of 0.6 to 1.0 mM. The K^+ ion binding study was conducted in 50 mM Tris·HCl pH 7.5 at PaSAHase concentration of 70 μM. The protein was titrated with 1 mM KCl in 50 mM Tris·HCl pH 7.5. The Zn^2+ ion binding study was conducted in a buffer containing 100 mM KCl and 50 mM Tris·HCl pH 7.5 at PaSAHase concentration of 45 μM. The protein was titrated with 2 mM ZnCl2. In all ITC experiments the ligand was injected to the protein solution (300 μL) in 2 µL aliquots until saturation was observed. The protein concentrations were estimated by the Bradford method and are presented for a single PaSAHase subunit. The raw ITC data were analyzed with the ORIGIN 7.0 software (OriginLab) to obtain the thermodynamic parameters of the complexation reactions: stoichiometry (N), dissociation constant (Kd), as well as changes in enthalpy (ΔH) and entropy (ΔS). For sigmoidal titration curves, the one set of sites model was fitted and N was obtained from the experiment. For hyperbolic curves, for which the determination of N is impossible, N was fixed while fitting the same model. All measurements were performed in duplicates.

PaSAHase [4] = target: T2, PaSAHase; assay: Time course of PaSAHase inactivation by 2′-deoxyadenosine (NADH formation, spectrofluorimetric); type: biochemical
Procedure: The measurements were performed at 293 K using an F-7000 spectrofluorotometer (Hitachi) in the volume of 1 mL. Irreversible formation of the reduced form of the cofactor (NADH) was monitored spectrofluorometrically by excitation at 340 nm and measurement of emission at 460 nm, as described previously. The influence of K^+ and Rb^+ ions on the time-dependent inactivation of the enzyme was carried out for 15 μM PaSAHase in a buffer containing 100 mM KCl or RbCl, 25 mM HEPES·KOH or HEPES·RbOH pH 7.5, and 1 mM TCEP·HCl. In the first experiment, the reaction was initiated by the addition of 2′-deoxyadenosine to the final concentration of 5 mM. In the second experiment, the enzyme was incubated for 2 hours with 100 μM adenosine and subsequently 2′-deoxyadenosine was added at a final concentration of 200 μM. After one minute the reaction was monitored for 4000 seconds (first experiment) or until the intensity of fluorescence emission reached a plateau (second experiment). An analogous experiment was carried out to analyze the influence of Zn^2+ cations on the enzyme. […] The cofactor conversion reaction was initiated by the addition of 2′-deoxyadenosine to the final concentration of 5 mM and after one minute was monitored for 5000 seconds.

Q65A PaSAHase [5] = target: T3, Q65A PaSAHase (Pseudomonas aeruginosa, UniProt Q9I685, Q65A); type: biochemical; conditions: Q65A mutein, 100 mM KCl, 25 mM HEPES·KOH pH 7.5, substrate SAH, 293 K; ± SEM
T3 construct: His-tag with TEV site (from vector pMCSG57) (N, cleaved yes); made in house; host or cells: E. coli BL21-CodonPlus(DE3)-RIPL
Procedure: as §1, §2

wild type (WT) PaSAHase [6] = target: T1, wild type (WT) PaSAHase; assay: ITC titration of wild type PaSAHase with adenosine; type: binding; conditions: for stoichiometry (N) / ΔH / ΔS / Kd: pH 7.5, 293 K; for Kd: dissociation constant Kd
Procedure: as §3

Q65A PaSAHase [7] = target: T3, Q65A PaSAHase; assay: ITC titration of Q65A PaSAHase with adenosine; type: binding
Procedure: as §3

human placental SAHase = target: human placental SAHase; set-up: method as in PMID 17892301; conditions: read-out: inhibition constant; cited from earlier work
[8] = target: the molecule itself; assay: SEC; Superdex 200 gel filtration in buffer D (100 mM KCl, 25 mM HEPES-KOH pH 7.5, 1 mM TCEP-HCl), after reconstitution with NAD+
[9] = Q65A, 100 mM K^+, pH 7.5, 293 K

T3 sequence (Q9I685 whole entry Q65A): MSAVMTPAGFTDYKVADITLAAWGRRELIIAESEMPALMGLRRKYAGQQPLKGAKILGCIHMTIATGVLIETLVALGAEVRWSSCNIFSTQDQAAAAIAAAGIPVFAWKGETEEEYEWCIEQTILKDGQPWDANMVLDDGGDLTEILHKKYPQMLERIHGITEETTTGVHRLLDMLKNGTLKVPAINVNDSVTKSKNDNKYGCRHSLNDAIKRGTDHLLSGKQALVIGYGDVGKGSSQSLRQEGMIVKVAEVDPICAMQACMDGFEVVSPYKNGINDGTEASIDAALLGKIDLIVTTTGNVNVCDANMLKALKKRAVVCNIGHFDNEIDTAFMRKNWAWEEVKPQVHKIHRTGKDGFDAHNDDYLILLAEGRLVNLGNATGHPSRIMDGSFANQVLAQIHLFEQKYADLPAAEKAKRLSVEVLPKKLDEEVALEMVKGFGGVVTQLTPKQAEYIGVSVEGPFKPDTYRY

## [Na+] [Na^+]
Wild type (WT) PaSAHase [1]
  kcat/KM: 8467 ± 940 M⁻¹ s⁻¹

## [Zn+2] [Zn^2+]
PaSAHase [2]; 25 mM Tris·HCl pH 7.5
  mode of inhibition: very strong noncompetitive inhibitor
PaSAHase [2]; listed as zinc
  Ki: ~15 nM
PaSAHase [2]
  Ki: 15 nM
PaSAHase [3]; 100 mM KCl, 50 mM Tris·HCl pH 7.5, 45 μM enzyme, 2 mM ZnCl2, 293 K
  stoichiometry of protein:Zn^2+ binding, per one subunit: 0.90 ± 0.06
PaSAHase [3]; 100 mM KCl, 50 mM Tris·HCl pH 7.5, 45 μM enzyme, 2 mM ZnCl2, 293 K, read-out: apparent binding constant Kd
  Kd: 12700 ± 2900 nM
PaSAHase [4]; 100 mM KCl, enzyme incubated with adenosine (200 μM) and ZnCl2 (1, 5 or 10 μM), then 5 mM 2′-deoxyadenosine
  rate of NADH formation: gradually decreased with increasing Zn^2+ concentration

## [K+] [K^+]
Q65A PaSAHase [5]
  kcat/KM: 5322 ± 358 M⁻¹ s⁻¹
Wild type (WT) PaSAHase [1]
  kcat/KM: 72502 ± 4858 M⁻¹ s⁻¹
PaSAHase [3]; 50 mM Tris·HCl pH 7.5, 70 μM PaSAHase, titrated with 1 mM KCl
  heat effect of ITC titration of ligand- and alkali-metal-free PaSAHase: No effect other than K^+ dilution heat

## Nc1ncnc2c1ncn2[C@@H]1O[C@H](CO)[C@@H](O)[C@H]1O [adenosine]
Wild type (WT) PaSAHase [6]; 100 mM Cs^+
  stoichiometry (N): 0.94 ± 0.02
  ΔH: -4.174 ± 0.115 kcal/mol
  ΔS: 10.1 cal/mol/°
  Kd: 4700 ± 600 nM
Wild type (WT) PaSAHase [6]; 100 mM K^+
  stoichiometry (N): 0.80 ± 0.01
  ΔH: -9.665 ± 0.237 kcal/mol
  ΔS: −5.9 cal/mol/°
  Kd: 1200 ± 200 nM
Wild type (WT) PaSAHase [6]; 100 mM Na^+
  stoichiometry (N): 0.97 ± 0.02
  ΔH: -3.891 ± 0.114 kcal/mol
  ΔS: 9.8 cal/mol/°
  Kd: 8800 ± 1000 nM
Wild type (WT) PaSAHase [6]; 100 mM Rb^+
  stoichiometry (N): 0.84 ± 0.01
  ΔH: -8.935 ± 0.137 kcal/mol
  ΔS: −4.2 cal/mol/°
  Kd: 1800 ± 200 nM
Wild type (WT) PaSAHase [6]; in the absence of any alkali metals or the presence of Li^+ ions
  heat effect of ITC titration: immeasurably small
Q65A PaSAHase [7]
  Kd: 7300 ± 400 nM
Q65A PaSAHase [7]; [9]
  stoichiometry (N): 0.236 ± 0.004
  ΔH: -7.447 ± 0.167 kcal/mol

## [Cs+] [Cs^+]
Wild type (WT) PaSAHase [1]
  kcat/KM: 6668 ± 333 M⁻¹ s⁻¹

## [Li+] [Li^+]
Wild type (WT) PaSAHase [1]
  kcat/KM: 731 ± 143 M⁻¹ s⁻¹

## [Rb+] [Rb^+]
Wild type (WT) PaSAHase [1]
  kcat/KM: 3568 ± 237 M⁻¹ s⁻¹
Wild type (WT) PaSAHase [1]; 100 mM RbCl, kinetics with SAH
  mode of inhibition: noncompetitive inhibitor
Wild type (WT) PaSAHase [1]; relative to kcat in the presence of K^+
  drop of kcat compared with K^+: ~33 fold
PaSAHase [4]; enzyme first incubated with 100 μM adenosine, then 200 μM 2′-deoxyadenosine added, 100 mM RbCl
  rate of NADH formation compared with K^+: significantly lower

## [Cu+2] [copper]
Human placental SAHase
  Ki: ~25 nM

B1: S-adenosyl-L-homocysteine hydrolase from Pseudomonas aeruginosa (enzyme, Pseudomonas aeruginosa PAO1)
chain: SNAMSAVMTPAGFTDYKVADITLAAWGRRELIIAESEMPALMGLRRKYAGQQPLKGAKILGCIHMTIQTGVLIETLVALGAEVRWSSCNIFSTQDQAAAAIAAAGIPVFAWKGETEEEYEWCIEQTILKDGQPWDANMVLDDGGDLTEILHKKYPQMLERIHGITEETTTGVHRLLDMLKNGTLKVPAINVNDSVTKSKNDNKYGCRHSLNDAIKRGTDHLLSGKQALVIGYGDVGKGSSQSLRQEGMIVKVAEVDPICAMQACMDGFEVVSPYKNGINDGTEASIDAALLGKIDLIVTTTGNVNVCDANMLKALKKRAVVCNIGHFDNEIDTAFMRKNWAWEEVKPQVHKIHRTGKDGFDAHNDDYLILLAEGRLVNLGNATGHPSRIMDGSFANQVLAQIHLFEQKYADLPAAEKAKRLSVEVLPKKLDEEVALEMVKGFGGVVTQLTPKQAEYIGVSVEGPFKPDTYRY
notes: short tripeptide (SNA-) cloning artifact that extends the N-terminus of the purified protein; S-adenosyl-L-homocysteine hydrolase, Pseudomonas aeruginosa PAO1; about 53 kDa by SDS-PAGE; Batches were either Zn2+-containing or freed of Zn2+ with TPEN; The vector pMCSG57 is named, the tag itself is not; also called PaSAHase; SAHase
[8]
  stoichiometry N: 4
